Experimental data as given in patent US9775859B2, “Methods and compositions for preventing and treating a disease related to glycan dysregulation” (Sinai Health System, priority 2005, dated 2017).
Where “and” joins values, the source holds several entries; their conditions need not be identical. Identical values can stand only once. Entries after “also recorded” stand apart in the source; their conditions may differ.

Columns and labels:
MGAT1 = molecular target: T1, MGAT1 (Homo sapiens, UniProt P26572); conditions: read-out: Km for UDP-GlcNAc; cited from earlier work
T1 sequence (P26572 1-445): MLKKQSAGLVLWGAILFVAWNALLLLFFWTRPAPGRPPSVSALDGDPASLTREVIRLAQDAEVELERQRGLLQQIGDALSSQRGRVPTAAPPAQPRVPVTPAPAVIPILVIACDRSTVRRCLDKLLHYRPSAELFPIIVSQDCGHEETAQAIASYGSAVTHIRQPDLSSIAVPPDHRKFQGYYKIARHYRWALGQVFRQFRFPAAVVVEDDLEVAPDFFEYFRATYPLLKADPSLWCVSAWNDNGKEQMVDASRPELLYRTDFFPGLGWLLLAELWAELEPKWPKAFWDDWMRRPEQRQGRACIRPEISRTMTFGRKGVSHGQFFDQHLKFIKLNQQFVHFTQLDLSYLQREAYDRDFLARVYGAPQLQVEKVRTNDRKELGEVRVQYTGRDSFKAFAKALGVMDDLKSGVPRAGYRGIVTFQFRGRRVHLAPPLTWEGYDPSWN

MGAT2 = molecular target: T2, MGAT2 (Homo sapiens, UniProt Q10469); conditions: read-out: Km for UDP-GlcNAc; cited from earlier work
T2 sequence (Q10469 1-447): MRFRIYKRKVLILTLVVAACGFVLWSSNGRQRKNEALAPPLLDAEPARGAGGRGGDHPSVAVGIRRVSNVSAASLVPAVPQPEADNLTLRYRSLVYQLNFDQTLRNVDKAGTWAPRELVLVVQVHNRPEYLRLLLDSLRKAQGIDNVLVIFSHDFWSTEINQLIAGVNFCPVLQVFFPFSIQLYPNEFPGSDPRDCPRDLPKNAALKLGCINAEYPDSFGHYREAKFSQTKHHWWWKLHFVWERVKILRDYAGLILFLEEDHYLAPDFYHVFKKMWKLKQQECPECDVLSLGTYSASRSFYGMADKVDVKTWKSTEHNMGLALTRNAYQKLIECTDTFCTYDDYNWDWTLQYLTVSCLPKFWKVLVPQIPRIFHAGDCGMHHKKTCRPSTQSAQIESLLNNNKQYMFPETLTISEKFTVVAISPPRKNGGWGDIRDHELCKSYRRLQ

MGAT4 = conditions: read-out: Km for UDP-GlcNAc; cited from earlier work
MGAT5 enzyme = molecular target: T3, MGAT5 enzyme (Homo sapiens, UniProt Q09328); conditions: read-out: Km for UDP-GlcNAc; cited from earlier work
T3 sequence (Q09328 1-741): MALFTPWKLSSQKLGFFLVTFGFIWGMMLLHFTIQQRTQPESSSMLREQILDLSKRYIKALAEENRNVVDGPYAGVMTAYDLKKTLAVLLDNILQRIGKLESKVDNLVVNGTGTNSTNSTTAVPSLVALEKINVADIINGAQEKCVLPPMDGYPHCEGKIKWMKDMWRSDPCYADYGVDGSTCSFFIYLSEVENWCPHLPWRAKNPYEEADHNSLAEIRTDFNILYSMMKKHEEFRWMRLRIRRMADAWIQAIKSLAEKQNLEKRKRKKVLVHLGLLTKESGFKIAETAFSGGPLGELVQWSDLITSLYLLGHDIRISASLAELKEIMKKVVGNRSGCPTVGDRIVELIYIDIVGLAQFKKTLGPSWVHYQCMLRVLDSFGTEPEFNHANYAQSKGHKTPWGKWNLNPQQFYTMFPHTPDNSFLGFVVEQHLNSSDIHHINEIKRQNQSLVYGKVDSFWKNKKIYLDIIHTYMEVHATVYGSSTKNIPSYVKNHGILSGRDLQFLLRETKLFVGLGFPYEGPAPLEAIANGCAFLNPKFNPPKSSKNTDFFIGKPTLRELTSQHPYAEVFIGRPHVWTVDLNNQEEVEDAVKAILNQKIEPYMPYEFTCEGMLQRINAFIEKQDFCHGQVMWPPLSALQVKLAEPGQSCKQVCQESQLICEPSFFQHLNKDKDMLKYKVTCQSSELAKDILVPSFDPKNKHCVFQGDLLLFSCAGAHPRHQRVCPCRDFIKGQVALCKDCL

[1] = test system: UDP-GlcNAc/UMP transporter; conditions: UDP-GlcNAc/UMP transport, model parameter; cited from earlier work
[2] = test system: PL/J and C57/B6 T cell cultures; assay: L-PHA staining of mouse CD3+ T cells stimulated with anti-CD3, FACS; format: cell-based; conditions: listed as SW
Description: Mice used for L-PHA staining and quantitative RT-PCR were sex and age matched. […] 129/Sv mice were from an original Mgat5 gene targeted population (28). All other mice (SJL, NOD, Balb/c and B10.S) were obtained from Jackson Laboratories. […] Mouse and Jurkat cells were stained with L-PHA and LEA by first blocking with PBA (2% bovine serum albumin/0.01% azide/PBS) for 10 min at 4° C. and then incubated with 4 μg/ml of L-PHA-FITC (Vector Laboratories Inc.) or 20 μg/ml of LEA-FITC (Sigma) in PBA for 40 min at 4° C. and analyzed by a BD FACSCalihur (BD Pharmingen, San Diego, Calif.). The level of lectin binding was normalized by untreated control and calculated as a percentage (Sample intensity/control intensity-1) %.
Mice used for L-PHA staining and quantitative RT-PCR were sex and age matched. […] 129/Sv mice were from the original Mgat5 gene targeted population (28). All other mice (SJL, NOD, Balb/c and B10.S) were obtained from Jackson Laboratories. Mouse cells were stained with anti-CD4 (RM4-5), anti-CD8 (53-6.7), anti-CD45R (RA3-6B2) from eBioscience, and L-PHA (4 μg/ml) and LEA (20 μg/ml) from Sigma. […] The indicated monosaccharides and/or metabolites were added daily except glucose which was added only at time zero. […] The plateau or highest non-toxic dose is shown.

[3] = test system: PL/J and C57/B6 T cell cultures; assay: CFSE proliferation of mouse CD3+ T cells stimulated with anti-CD3; format: cell-based; conditions: wild type PL/J and C57/B6 T cells
CHO cells [4] = assay: L-PHA and ConA lectin staining of CHO cells by FACS; format: cell-based, Chinese Hamster; conditions: CHO cells treated with inhibitor
From the text: (§1) For comparison of N-glycan profiles of mice and human MS patients, CHO cells and CHO cells deficient at 5 different steps in the N-glycan pathway (Glucosidase I, Mannosidase I, MGAT1, Mannosidase II and MGAT5, FIG. 7A) were used to define relative L-PHA and Concanavillin A (ConA) lectin staining levels by FACS along with MALDI TOF N-glycan processing profiles. […] Indeed, a human infant with severe human glucosidase I deficiency accumulates Glc3Man (885 A ion in FIG. 16A, 21C) in the urine, a 4 hexose oligomer which derives from the Glucosidase I substrate Glc3Man9GlcNAc2 via endo-mannosidase activity (70). […] Such activity would produce Man8GlcNAc2, Man7GlcNAc2 and Man6GlcNAc2 structures and allow processing by Mannosidase I/II. Indeed, N-glycans of these 3 compositions accumulate in Glucosidase I/II inhibited cells when Mannosidase I activity is blocked with DMN (69). The larger structures Glc3Man9GlcNAc2 (mass 3008) and Glc3Man7GlcNAc2 (mass 2600) were also observed (67), however they were at lower relative intensities compared to the A ion group (FIG. 21C). […] Mixing CHO and Lec1 cells in various proportions confirmed that relative differences in expression of N-glycan structures can be determined using MALDI TOF (FIG. 21G).

CHO cells [5] = assay: MALDI-TOF mass spectroscopy N-glycan profile of CHO cells; format: cell-based, Chinese Hamster; conditions: CHO cells treated with inhibitor
Description: This was done as a service at the Glycotechnology core facility, a resource of the Glycobiology Research and Training Center (GRTC) at the University of California, San Diego. CD3+ murine T cells (6×10^6), resting PBMCs from human controls and MS subjects (6×10^6) and CHO cells (10×10^6) were lysed with 1% SDS in 100 mM Tris pH 7.4, dialyzed to remove SDS, digested with trypsin to generate glycopeptides and treated with PNGaseF to release the N-glycans. To focus on early processing, N-glycans were desialylated by mild acid digestion prior to permethylation and MALDI-TOF mass spectroscopy. Monoisotopic peaks in the spectra were identified using GlycanMass and GlycoMod online software, with specific targeting of the N-glycan intermediates occurring during Golgi processing.
as §1

## CC(=O)N[C@H]1[C@@H](OP(=O)(O)OP(=O)(O)OC[C@H]2O[C@@H](n3ccc(=O)[nH]c3=O)[C@H](O)[C@@H]2O)O[C@H](CO)[C@@H](O)[C@@H]1O [UDP-GlcNAc, UDP-N-acetylglucosamine]
MGAT1
  Km: 0.04 mM
MGAT2
  Km: 0.9 mM
MGAT4
  Km: ~5 mM
MGAT5 enzyme
  Km: ~10 mM and ~11 mM and 11 mM
[1]
  Km: 0.00713 mM

## O[C@H]1[C@H]2[C@H](O)CCCN2C[C@H]1O [swainsonine]
[2]; anti-CD3, minimal concentrations
  up-regulation of β1,6 GlcNAc branched N-glycans following stimulation: significantly attenuated
[2]; minimal concentrations
  resting levels of β1,6 GlcNAc branched N-glycans: without affecting; also recorded: do not affect
[3]
  reversal of supplement effect on proliferation by blocking Mgat5 N-glycan expression: reversed
CHO cells [4]
  high-mannose structures as seen by ConA staining: increased
  β1,6GlcNAc-branched N-glycan expression by L-PHA staining: dramatic reductions
CHO cells [5]
  MALDI TOF profile of N-glycans (accumulated structures): accumulation of hybrid structures
  β1,6GlcNAc-branched tetra-antennary N-glycans (mass 2969, structure G): absent
